Test results: patent publication US20080221205A1, “FURAN DERIVATIVES FOR PREVENTING AND CURING OSTEOPOROSIS AND PHARMACEUTICAL COMPOSITIONS CONTAINING THE SAME” (priority 2002, published 2008)

Test system: osteoclast formation
Assay: Inhibition rate of furan derivatives versus osteoclast formation (TRAP staining)
Format: cell-based, mice
Conditions: TRAP-positive multinucleated cells, untreated control set as 100%
Experimental: First, bone marrow cells were isolated, as follow. After sacrificing 7-9 week female mice by cervical dislocation, femur and tibia were excised aseptically while removing attached soft tissues. After cutting both ends of long bones, 1 ml of an enzyme solution, containing 0.1% collagenase (Gibco), 0.05% trypsin and 0.5 mM EDTA (Gibco), was injected to the bone marrow cavity at one end using a syringe with a 26-guage needle, and bone marrow was then collected. After shaking the recovered bone marrow for 30 min, bone marrow cells were collected, and cultured in α-minimum essential medium (α-MEM) supplemented with 10% FBS for 24 hrs. Then, non-adherent cells were collected, which are osteoclast pregenitors, aliquotted onto culture plates at a density of 2×10^5 cells per well, and cultured for 8 days in α-MEM supplemented with 20 ng/ml of macrophage-colony stimulating factor (M-CSF, Peprotech, USA) and 30 ng/ml RANKL (Peprotech, USA). During the 8 days of culturing, the cells were treated with the Compound 1. Thereafter, osteoclast formation was investigated by fixing the cultured cells and then carrying out TRAP staining, as described in the following Experimental Example 2.2. In addition, resorption activity of osteoclasts was investigated by measuring the absorption area after removing osteoclasts in cultures in calcium phosphate-coated plates, as described in Experimental Example 2.3, below.
After cell culture, the adherent cells were washed with PBS, and TRAP staining was performed, as follows. After being fixed with citrate-acetate-formaldehyde for 5 min, the cells were incubated for 1 hr in acetate buffer (prewarmed at 37° C., pH 5.0) containing naphthol AS-BI phosphate, fast Garnet GBC and 7 mM tartrate buffer (pH 5.0). TRAP-positive multinucleated cells having 3 or more nuclei were considered as osteoclasts.
Osteoclast pregenitor cells were isolated, and their differentiation to mature osteoclasts was induced, according to the same method as in the Experimental Example 2-1, while treated with each of the furan derivatives of the present invention. According to the same method as in the Experimental Example 2-2, TRAP staining performed, and TRAP-positive multinucleated cells were counted. An inhibition rate of each furan derivative against osteoclast formation was expressed as percentage, wherein the number of stained cells in a control not treated the furan derivative was arbitrarily set as 100% (Tables 14 to 16).

Structure (SMILES)	Inhibition rate against osteoclast formation, % (0.1 μM) [%]	Inhibition rate against osteoclast formation, % (1 μM) [%]	Inhibition rate against osteoclast formation, % (10 μM) [%]
Cc1cc(OCc2ccc(C(=O)Nc3cccc(C)c3C)o2)ccc1Cl [Compound 172]	0	0	
Cc1cc(OCc2ccc(C(=O)Nc3ccc(Cl)cc3)o2)ccc1Cl [Compound 173]	0	0	
O=C(O)c1ccc(COc2cccc(Cl)c2)o1 [Compound 112]	0	0	
O=Cc1ccc(COC(=O)Nc2ccc(Cl)c(Cl)c2)o1 [Compound 54]	0	0	10
CC(=O)c1ccc(NC(=O)c2ccc(COc3cccc4ccccc34)o2)cc1 [Compound 160]	0	0	
O=C(c1ccc(COc2cc(Cl)ccc2Cl)o1)N1CCCCCC1 [Compound 133]	0	0	0.5
CCc1cccc(NC(=O)c2ccc(COc3ccc(F)cc3)o2)c1 [Compound 163]	0	0	
O=Cc1ccc(COC(=O)Nc2ccccc2Cl)o1 [Compound 55]	0	20	20
O=C(Nc1ccccc1)c1ccc(COc2ccc3ccccc3c2)o1 [Compound 137]	0	0	
COC(=O)c1ccc(COc2ccc(Cl)cc2)o1 [Compound 80]	0	0	
O=Cc1ccc(COC(=O)Cc2ccccc2)o1 [Compound 32]	0		50
COC(=O)c1ccc(COc2cc(C)ccc2C(C)C)o1 [Compound 68]	0	0	5.62
CCCc1ccc(OCc2ccc(C(=O)Nc3ccc(F)cc3F)o2)c(OC)c1 [Compound 176]	0	0	
COC(=O)c1ccc(COc2ccc(Cl)cc2[N+](=O)[O-])o1 [Compound 66]	0	0	
COc1ccccc1OCc1ccc(C(=O)Nc2ccccc2Cl)o1 [Compound 174]	0	0	
Cc1cc(C)cc(OCc2ccc(C(=O)Nc3ccccc3F)o2)c1 [Compound 177]	0	0	
CCCc1ccc(OCc2ccc(C(=O)Nc3ccc(OC)c(OC)c3)o2)cc1 [Compound 164]	0	0	
O=Cc1ccc(COC(=O)Cc2c(F)cccc2F)o1 [Compound 33]	0	3.3	50
COc1ccc(NC(=O)c2ccc(COc3ccc(Cl)c(C)c3)o2)cc1 [Compound 150]	0	0	
COc1ccc(C)cc1NC(=O)c1ccc(COc2cccc(Cl)c2)o1 [Compound 171]	0	0	0.42
COc1ccccc1OCc1ccc(C(=O)Oc2ccc(Cl)cc2)o1 [Compound 97]	0	0	
